Results on two compounds are retold here after ChEMBL document CHEMBL4507279, “Data for DCP probe BI-9627” (2021).

The subject of data set [1] is Proto-oncogene tyrosine-protein kinase receptor Ret (Homo sapiens), P07949 [M918T]. Conditions: Compound concentration 1000.0 nM; call rule not given here.
In data set [2] the target is D(2) dopamine receptor (Homo sapiens) (UniProt P14416). Particulars: Compound concentration 10.0 uM.
Data set [3] has as its target Histamine H2 receptor (Homo sapiens) (UniProt P25021). Conditions: Compound concentration 10.0 uM.
Data set [4] has as its target D(1A) dopamine receptor (Homo sapiens) (UniProt P21728). Conditions: Compound concentration 10.0 uM.
The target of data set [5] is Sigma non-opioid intracellular receptor 1 (Homo sapiens) (UniProt Q99720). Conditions: Compound concentration 10.0 uM.
Sigma non-opioid intracellular receptor 1 (Homo sapiens), sequence (Q99720 whole entry): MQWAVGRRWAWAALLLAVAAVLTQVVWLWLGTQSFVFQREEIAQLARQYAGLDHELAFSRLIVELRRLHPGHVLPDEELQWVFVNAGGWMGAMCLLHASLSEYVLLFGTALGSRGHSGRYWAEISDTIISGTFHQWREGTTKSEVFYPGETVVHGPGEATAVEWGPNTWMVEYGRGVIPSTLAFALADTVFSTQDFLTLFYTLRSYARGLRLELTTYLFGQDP
In data set [6] the target is Alpha-1B adrenergic receptor (Homo sapiens) (UniProt P35368). Briefly: ALPHA1B/R Eurofins-Panlabs selectivity data (BI). Particulars: Rattus norvegicus; Compound concentration 10.0 uM.
Alpha-1B adrenergic receptor (Homo sapiens), sequence (P35368 whole entry): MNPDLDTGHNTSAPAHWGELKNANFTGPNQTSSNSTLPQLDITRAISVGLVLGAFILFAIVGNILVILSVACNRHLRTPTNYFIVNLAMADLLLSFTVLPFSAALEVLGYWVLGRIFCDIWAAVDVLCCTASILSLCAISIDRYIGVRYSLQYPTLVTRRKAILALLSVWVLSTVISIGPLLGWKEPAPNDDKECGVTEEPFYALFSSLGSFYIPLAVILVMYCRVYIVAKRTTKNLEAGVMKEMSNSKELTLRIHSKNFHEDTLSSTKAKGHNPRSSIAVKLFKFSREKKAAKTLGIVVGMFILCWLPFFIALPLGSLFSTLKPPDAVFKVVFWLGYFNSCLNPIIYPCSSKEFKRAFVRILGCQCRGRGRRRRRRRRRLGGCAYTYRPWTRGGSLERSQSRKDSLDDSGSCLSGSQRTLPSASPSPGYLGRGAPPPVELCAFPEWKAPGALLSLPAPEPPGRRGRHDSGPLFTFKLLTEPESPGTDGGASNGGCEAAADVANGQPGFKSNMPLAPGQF
The target in data set [7] is D(1A) dopamine receptor (Homo sapiens) (UniProt P21728). In words: D1/HU Eurofins-Panlabs selectivity data (BI). Conditions: Compound concentration 10.0 uM.
D(1A) dopamine receptor (Homo sapiens), sequence (P21728 whole entry): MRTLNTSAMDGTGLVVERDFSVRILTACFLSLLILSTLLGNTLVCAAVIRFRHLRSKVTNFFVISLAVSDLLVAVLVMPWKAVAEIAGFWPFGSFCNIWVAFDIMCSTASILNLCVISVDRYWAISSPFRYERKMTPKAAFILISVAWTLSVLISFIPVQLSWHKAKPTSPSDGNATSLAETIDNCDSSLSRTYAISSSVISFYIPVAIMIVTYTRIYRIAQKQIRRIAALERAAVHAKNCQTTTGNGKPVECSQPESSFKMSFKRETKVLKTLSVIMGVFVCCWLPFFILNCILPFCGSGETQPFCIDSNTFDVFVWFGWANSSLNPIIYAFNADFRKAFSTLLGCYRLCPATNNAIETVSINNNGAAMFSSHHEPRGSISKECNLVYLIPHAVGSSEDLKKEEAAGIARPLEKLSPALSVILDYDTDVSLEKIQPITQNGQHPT
Data set [8] has as its target Glutamate receptor ionotropic, NMDA 1 (Rattus norvegicus) (UniProt P35439). In words: NMDAGLSI/RA Eurofins-Panlabs selectivity data (BI). Particulars: Compound concentration 10.0 uM.
The target in data set [9] is Sodium- and chloride-dependent GABA transporter 1 (Rattus norvegicus) (UniProt P23978). In words: GABATRANS/RA Eurofins-Panlabs selectivity data (BI). Particulars: Compound concentration 10.0 uM.
Data set [10] deals with Voltage-dependent N-type calcium channel subunit alpha-1B (Rattus norvegicus) (UniProt Q02294). In words: CA+/N/RA Eurofins-Panlabs selectivity data (BI). Conditions: Compound concentration 10.0 uM.
The target of data set [11] is hERG (voltage-gated inwardly rectifying potassium channel KCNH2) (Homo sapiens, UniProt Q12809). Briefly: K+/HERG Eurofins-Panlabs selectivity data (BI). Particulars: compound concentration 10 uM, read-out: % Ctrl.
hERG (voltage-gated inwardly rectifying potassium channel KCNH2), sequence (Q12809 whole entry): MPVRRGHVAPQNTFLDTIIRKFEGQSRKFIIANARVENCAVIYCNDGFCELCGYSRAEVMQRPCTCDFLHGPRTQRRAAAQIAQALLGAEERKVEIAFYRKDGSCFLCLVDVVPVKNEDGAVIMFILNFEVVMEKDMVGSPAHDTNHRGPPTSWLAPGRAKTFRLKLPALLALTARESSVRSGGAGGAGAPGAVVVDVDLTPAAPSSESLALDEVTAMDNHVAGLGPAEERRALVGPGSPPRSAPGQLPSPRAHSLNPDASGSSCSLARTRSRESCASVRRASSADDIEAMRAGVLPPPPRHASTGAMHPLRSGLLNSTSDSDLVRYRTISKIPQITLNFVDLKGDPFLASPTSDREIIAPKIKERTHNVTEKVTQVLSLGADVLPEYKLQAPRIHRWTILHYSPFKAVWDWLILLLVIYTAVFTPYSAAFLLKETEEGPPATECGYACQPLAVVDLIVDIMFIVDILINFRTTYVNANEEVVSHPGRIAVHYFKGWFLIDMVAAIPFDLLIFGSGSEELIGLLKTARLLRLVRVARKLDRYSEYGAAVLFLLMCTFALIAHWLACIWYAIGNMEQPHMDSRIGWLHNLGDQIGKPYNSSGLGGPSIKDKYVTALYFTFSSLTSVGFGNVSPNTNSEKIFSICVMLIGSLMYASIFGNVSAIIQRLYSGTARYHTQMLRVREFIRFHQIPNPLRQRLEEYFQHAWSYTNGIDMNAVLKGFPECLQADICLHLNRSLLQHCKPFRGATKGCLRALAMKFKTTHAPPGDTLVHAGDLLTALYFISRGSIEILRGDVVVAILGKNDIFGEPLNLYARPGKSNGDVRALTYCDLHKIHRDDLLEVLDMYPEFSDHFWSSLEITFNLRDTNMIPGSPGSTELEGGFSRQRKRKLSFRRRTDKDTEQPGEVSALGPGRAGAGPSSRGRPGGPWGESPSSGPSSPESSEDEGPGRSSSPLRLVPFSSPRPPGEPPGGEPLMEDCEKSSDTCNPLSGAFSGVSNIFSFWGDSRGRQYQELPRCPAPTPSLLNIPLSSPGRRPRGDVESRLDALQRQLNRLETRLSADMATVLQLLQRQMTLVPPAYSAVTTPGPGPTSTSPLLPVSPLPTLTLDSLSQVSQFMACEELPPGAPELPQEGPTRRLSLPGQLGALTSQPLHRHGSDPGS
For data set [12], the target named is Muscarinic acetylcholine receptor M3 (Homo sapiens) (UniProt P20309). Briefly: M3/HU Eurofins-Panlabs selectivity data (BI). Conditions: Compound concentration 10.0 uM.
Muscarinic acetylcholine receptor M3 (Homo sapiens), sequence (P20309 whole entry, looked up): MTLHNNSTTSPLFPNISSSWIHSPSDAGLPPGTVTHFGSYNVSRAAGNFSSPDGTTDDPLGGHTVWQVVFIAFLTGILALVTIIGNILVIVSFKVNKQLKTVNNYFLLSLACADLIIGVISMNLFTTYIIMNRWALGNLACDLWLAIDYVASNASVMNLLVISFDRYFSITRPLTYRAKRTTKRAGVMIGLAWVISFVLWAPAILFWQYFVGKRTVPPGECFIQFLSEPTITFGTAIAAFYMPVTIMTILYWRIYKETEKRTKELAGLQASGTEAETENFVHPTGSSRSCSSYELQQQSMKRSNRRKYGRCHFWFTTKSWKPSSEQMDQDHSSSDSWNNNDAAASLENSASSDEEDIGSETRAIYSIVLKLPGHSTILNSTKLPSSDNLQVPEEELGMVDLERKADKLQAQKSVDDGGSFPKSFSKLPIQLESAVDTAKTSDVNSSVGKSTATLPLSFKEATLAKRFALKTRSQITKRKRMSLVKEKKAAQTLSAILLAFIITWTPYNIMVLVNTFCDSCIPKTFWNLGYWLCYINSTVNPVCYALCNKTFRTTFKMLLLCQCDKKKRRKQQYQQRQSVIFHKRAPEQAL
Data set [13] concerns the target Neuropeptide Y receptor type 1 (Homo sapiens) (UniProt P25929). In words: Y1/HU Eurofins-Panlabs selectivity data (BI). Conditions: Compound concentration 10.0 uM.
The target of data set [14] is T1, Alpha-1D adrenergic receptor (Homo sapiens) (UniProt P25100).
T1 sequence (whole entry): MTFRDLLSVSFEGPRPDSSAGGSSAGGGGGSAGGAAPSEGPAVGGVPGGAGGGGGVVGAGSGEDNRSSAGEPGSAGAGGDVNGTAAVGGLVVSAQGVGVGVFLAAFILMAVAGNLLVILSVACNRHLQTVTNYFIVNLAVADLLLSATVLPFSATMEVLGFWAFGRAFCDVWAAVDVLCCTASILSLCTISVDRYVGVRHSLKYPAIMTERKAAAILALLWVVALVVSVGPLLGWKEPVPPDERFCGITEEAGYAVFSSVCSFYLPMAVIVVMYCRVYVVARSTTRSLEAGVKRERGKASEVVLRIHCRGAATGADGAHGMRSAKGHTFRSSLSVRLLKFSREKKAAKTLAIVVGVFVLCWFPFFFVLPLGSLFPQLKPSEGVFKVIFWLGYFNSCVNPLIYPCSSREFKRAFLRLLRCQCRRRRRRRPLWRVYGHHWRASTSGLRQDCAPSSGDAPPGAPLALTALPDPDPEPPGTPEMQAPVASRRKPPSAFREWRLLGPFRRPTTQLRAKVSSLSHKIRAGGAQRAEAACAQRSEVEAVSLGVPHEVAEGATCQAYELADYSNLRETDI
Briefly: ALPHA1D/H Eurofins-Panlabs selectivity data (BI). Particulars: Compound concentration 10.0 uM.

In data set [15] the target is T2, Alpha-2A adrenergic receptor (Homo sapiens) (UniProt P08913).
T2 sequence (whole entry): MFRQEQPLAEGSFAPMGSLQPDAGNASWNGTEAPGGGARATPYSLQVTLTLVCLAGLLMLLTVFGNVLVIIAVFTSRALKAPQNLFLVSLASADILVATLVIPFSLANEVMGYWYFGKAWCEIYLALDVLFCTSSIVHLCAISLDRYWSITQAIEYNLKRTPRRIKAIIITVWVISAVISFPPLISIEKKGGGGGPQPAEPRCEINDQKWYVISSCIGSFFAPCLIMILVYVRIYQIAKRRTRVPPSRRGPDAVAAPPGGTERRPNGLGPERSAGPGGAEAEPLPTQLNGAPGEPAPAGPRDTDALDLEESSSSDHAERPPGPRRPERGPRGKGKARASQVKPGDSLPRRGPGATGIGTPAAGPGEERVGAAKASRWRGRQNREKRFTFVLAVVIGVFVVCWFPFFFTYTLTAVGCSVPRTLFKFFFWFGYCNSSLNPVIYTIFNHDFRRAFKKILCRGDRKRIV
In words: ALPHA2A/H Eurofins-Panlabs selectivity data (BI). Particulars: Compound concentration 10.0 uM.

The target of data set [16] is Substance-P receptor (Homo sapiens) (UniProt P25103). Briefly: NK1/HU Eurofins-Panlabs selectivity data (BI). Conditions: Compound concentration 10.0 uM.
Substance-P receptor (Homo sapiens), sequence (P25103 whole entry): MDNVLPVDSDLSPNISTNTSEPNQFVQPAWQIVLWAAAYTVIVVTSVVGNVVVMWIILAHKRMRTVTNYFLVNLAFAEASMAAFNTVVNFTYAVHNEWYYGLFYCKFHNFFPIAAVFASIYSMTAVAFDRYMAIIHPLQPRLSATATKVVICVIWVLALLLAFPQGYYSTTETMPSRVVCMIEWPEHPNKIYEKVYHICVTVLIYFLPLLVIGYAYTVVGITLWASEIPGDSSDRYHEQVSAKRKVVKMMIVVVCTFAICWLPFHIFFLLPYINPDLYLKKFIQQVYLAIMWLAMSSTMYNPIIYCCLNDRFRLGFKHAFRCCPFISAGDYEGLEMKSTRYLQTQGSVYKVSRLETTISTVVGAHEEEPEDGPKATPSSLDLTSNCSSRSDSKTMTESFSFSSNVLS
Data set [17] addresses Sodium-dependent noradrenaline transporter (Homo sapiens) (UniProt P23975). In words: NETRANS/H Eurofins-Panlabs selectivity data (BI). Particulars: Compound concentration 10.0 uM.
Data set [18] addresses Sodium channel alpha subunit (site 2) (Homo sapiens, UniProt P35498+P35499+Q01118+Q14524+Q15858+Q99250+Q9NY46+Q9UI33+Q9UQD0+Q9Y5Y9). Briefly: NA+/SITE2ATG Eurofins-Panlabs selectivity data (BI). The format is protein assay, Cavia porcellus. Set-up: mode of action antagonist. Conditions: guinea pig; compound concentration 30 uM; read-out: % Ctrl.
Data set [19] addresses Beta-2 adrenergic receptor (Homo sapiens) (UniProt P07550). Briefly: BETA2/HU Eurofins-Panlabs selectivity data (BI). Particulars: Compound concentration 10.0 uM.
For data set [20], the target named is Sodium-dependent dopamine transporter (Homo sapiens, UniProt Q01959). Briefly: DATRANS/H Eurofins-Panlabs selectivity data (BI). Conditions: Compound concentration 10.0 uM.
Data set [21] deals with Muscarinic acetylcholine receptor M3 (Homo sapiens) (UniProt P20309). Conditions: Compound concentration 10.0 uM.
The target of data set [22] is Histamine H1 receptor (Homo sapiens) (UniProt P35367). In words: H1/H Eurofins-Panlabs selectivity data (BI). Particulars: Compound concentration 10.0 uM.
The target in data set [23] is 5-hydroxytryptamine receptor 5A (Homo sapiens) (UniProt P47898). Conditions: Compound concentration 10.0 uM.
5-hydroxytryptamine receptor 5A (Homo sapiens), sequence (P47898 whole entry): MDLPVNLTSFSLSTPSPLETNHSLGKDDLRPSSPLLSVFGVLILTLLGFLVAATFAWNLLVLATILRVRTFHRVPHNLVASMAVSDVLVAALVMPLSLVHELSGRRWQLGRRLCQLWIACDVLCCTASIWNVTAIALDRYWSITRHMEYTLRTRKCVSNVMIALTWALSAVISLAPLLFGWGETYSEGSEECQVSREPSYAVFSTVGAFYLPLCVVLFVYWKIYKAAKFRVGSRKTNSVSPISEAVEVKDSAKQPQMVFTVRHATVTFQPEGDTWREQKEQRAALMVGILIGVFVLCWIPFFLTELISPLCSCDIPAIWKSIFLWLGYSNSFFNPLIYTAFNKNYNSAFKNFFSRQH
Data set [24] addresses 5-hydroxytryptamine receptor 2A (Homo sapiens, UniProt P28223). In words: GPCRScan assay: inhibition of 5-HT2A. Set-up: radioligand conc. used [nm] 1.2 – 2.4, parental cells HEKT.
Data set [25] concerns the target Adenosine receptor A2a (Homo sapiens) (UniProt P29274). Briefly: A2A/HU Eurofins-Panlabs selectivity data (BI). Conditions: Compound concentration 10.0 uM.

Sodium-dependent noradrenaline transporter (Homo sapiens), sequence (P23975 whole entry): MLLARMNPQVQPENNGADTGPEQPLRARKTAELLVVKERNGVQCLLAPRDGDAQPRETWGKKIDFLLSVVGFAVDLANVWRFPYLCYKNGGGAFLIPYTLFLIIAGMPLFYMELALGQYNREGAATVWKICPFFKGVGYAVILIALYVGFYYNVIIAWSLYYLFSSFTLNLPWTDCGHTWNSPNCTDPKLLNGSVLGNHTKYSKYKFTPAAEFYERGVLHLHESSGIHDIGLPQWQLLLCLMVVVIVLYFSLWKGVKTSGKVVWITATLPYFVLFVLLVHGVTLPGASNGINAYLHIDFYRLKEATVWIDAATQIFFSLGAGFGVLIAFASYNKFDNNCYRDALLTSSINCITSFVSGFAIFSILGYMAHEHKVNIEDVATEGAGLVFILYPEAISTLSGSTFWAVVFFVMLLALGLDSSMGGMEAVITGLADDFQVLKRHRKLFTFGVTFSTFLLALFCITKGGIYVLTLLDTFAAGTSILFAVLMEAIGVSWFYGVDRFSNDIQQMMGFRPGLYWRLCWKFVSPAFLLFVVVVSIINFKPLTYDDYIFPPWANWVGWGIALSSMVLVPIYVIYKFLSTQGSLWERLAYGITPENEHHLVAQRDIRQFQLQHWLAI
Beta-2 adrenergic receptor (Homo sapiens), sequence (P07550 whole entry, looked up): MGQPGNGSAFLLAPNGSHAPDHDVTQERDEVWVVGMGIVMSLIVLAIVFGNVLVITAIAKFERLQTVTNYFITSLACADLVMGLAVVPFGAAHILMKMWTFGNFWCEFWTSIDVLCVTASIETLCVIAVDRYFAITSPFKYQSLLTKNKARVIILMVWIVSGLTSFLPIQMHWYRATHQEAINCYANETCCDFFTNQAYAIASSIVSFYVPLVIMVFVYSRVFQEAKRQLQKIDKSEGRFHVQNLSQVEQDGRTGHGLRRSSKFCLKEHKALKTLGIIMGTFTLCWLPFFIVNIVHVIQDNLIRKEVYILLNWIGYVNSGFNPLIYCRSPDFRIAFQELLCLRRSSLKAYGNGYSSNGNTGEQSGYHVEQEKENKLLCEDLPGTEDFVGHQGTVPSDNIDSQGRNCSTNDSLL

`CC(=O)N1CCC(c2ccc(C(=O)NC3=NCCN3)cc2C(F)(F)F)CC1` [BI 0054]: the residual activity in data set [1] was 90%. Also, the inhibition is -4.57% in data set [2], -9.37% in data set [3], 4.8% in data set [4] and -8.45% in [5].

With `CC(=O)N1CCC(c2ccc(C(=O)NC(=N)N)cc2C(F)(F)F)CC1` [BI 9627], the residual activity in data set [6] was 95%; in data set [7] it was 94%; in [8], 109%; in [9], 101%; in data set [10], 98%; in [12] it was 79%. Also, the residual activity is 94% in [13]; 98% in [14]; 93% in data set [15]; 100% in [16]; 91% in data set [17]; 102% in data set [19]. Moreover, the values for the residual activity in data set [20], in data set [22] and in data set [25] were 101%, 98% and 86%, respectively. Also, the activity at 10 µM in data set [11] is on record as 105% (not active). Also, in data set [18], the activity at 30 µM is given as 100% (not active). Also, the inhibition in data set [21] is 12.1%; in [23] it was -4.89%. Besides, the inhibition constant (Ki) in data set [24] worked out at 10 µM.
